Data: patent US10808017B2, “Ubiquitin variants and uses therof as 53BP1 inhibitors” (The Governing Council of the University of Toronto, priority 2016, dated 2020)

Experiments:
[1] = tested on: gene targeting at the LMNA locus in U2OS cells; test: LMNA mClover gene targeting assay (CRISPR/Cas9); format: cell-based; details: parental U2OS cells; NU7441 at 10 μM
Method: (§1) FIG. 4. Activation of HR by i53. FIG. 4A, Schematic of the DR-GFP assay. FIG. 4B. U2OS DR-GFP cells were transfected with the vectors expressing i53, the DM mutant or an empty vector control (EV) along with an I-Scel expression vector. The percentage of GFP-positive cells was determined 48 h post-transfection for each condition and was normalized to the empty vector condition (mean±s.d., N=4). FIG. 4C, U2OS DR-GFP were first transfected with siRNAs targeting the 53BP1 or BRCA1 mRNAs along with a non-targeting siRNA (CTRL). 24 h post-transfection, cells were transfected with the I-SceI expression vector and the percentage of GFP-positive cells was determined 48 h post-siRNA transfection for each condition. The values were normalized to the empty vector condition and presented as the mean±s.e.m; N=4. FIG. 4D, Schematic of the gene targeting assay. FIG. 4E, Gene targeting efficiency at the LMNA locus in parental or 53BP1Δ U2OS cells following transfection with vectors expressing Flag-tagged i53 or its DM mutant or an empty vector control (EV). The DNA-PK inhibitor NU7441 was also added where indicated. 24 h post-transfection, cells were analysed for mClover fluorescence. Individual experiments are presented with the error bar representing the s.d., (N=3). FIG. 4F, Gene targeting at the LMNA locus in G 1-arrested parental (WT) or 53BP1Δ U2OS cells transfected with vectors expressing Flag-tagged i53 or its DM mutant or an empty vector control (EV). The DNA-PK inhibitor NU7441 was also added in the indicated conditions. 24 h post-transfection, cells were analysed for mClover fluorescence. Individual experiments are present with the error bar representing the s.d., (N=3).
The Lamin A (LMNA) assay to measure the frequency of introduction of the coding sequence for mClover at the 5′ end of LMNA using the CRISPR/Cas9 was performed as previously described4. Parental or 53BP1Δ U2OS cell lines were transfected with the indicated plasmids using Lipofectamine RNAiMAX (Invitrogen). 24 h later, the cells were electroporated with 2.5 μg of sgRNA plasmids and 2.5 μg of donor template using a Nucleofector (Lonza; protocol X-001). Parental or 53BP1Δ U2OS cells stably expressing CtIP-T847E mutant were transfected with an siRNA against KEAP1 and the indicated plasmids and processed as previously described.

[2] = tested on: gene conversion (HR) in U2OS DR-GFP cells; test: Direct-repeat (DR)-GFP gene conversion assay; format: cell-based, human; details: SCR7 at 1 μM; i53 by plasmid expression
Method: as §1
The direct repeat (DR)-GFP assay to measure the frequency of HR and the strand annealing EJ2-GFP assay to measure the frequency of MMEJ were performed as previously described. Briefly, U2OS DR-GFP or U2OS EJ2-GFP cells were transfected with 10 nM siRNA (Dharmacon) using Lipofectamine RNAiMAX (Invitrogen). 24 h later, the cells were transfected with the pCBASceI plasmid (Addgene #26477) and plasmids, using Lipofectamine 2000 (Invitrogen). 48 h post-plasmid transfection, the cells were trypsinized and the percentage of GFP-expressing cells was analyzed using the BD FACSCalibur flow cytometer.
AAV-293 cells (Agilent) were transfected with pAAV expression, pDJ and pHelper constructs (Cell Biolabs, Inc., USA) in equal amounts using PEI to produce AAV-DJ expression viruses. 48-72 h later, the viral supernatant was used to transduce target cells for 24 h, and assays were initiated a further 24 h later.

[3] = tested on: gene targeting at the LMNA locus in U2OS cells; details: reference [21]; cited from earlier work

Row | Compound | Change of gene targeting at the LMNA locus (in words) [1] | Gene conversion in DR-GFP assay (comparison in words) [2] | Response of gene targeting at the LMNA locus to treatment [3]
1 | O=c1cc(N2CCOCC2)oc2c(-c3cccc4c3sc3ccccc34)cccc12 [NU7441, 8-dibenzothiophen-4-yl-2-morpholin-4-yl-chromen-4-one, reference compound] | modest increase in gene targeting | – | –
2 | c1cnccn1 [SCR7 pyrazine, reference compound] | – | minimal impact | –
3 | O=c1[nH]c(=S)[nH]c(N=Cc2ccccc2)c1N=Cc1ccccc1 [SCR7, reference compound] | – | minimal impact | not responsive
